Measured values taken from US20090118274A1, “MONOCYCLIC AMINOPROPYL TETRAHYDRO-PYRAZOLO-PYRIDINE MODULATORS OF CATHEPSIN S” (priority 2007, published 2009).
Like-named read-outs stand apart in the source and are kept apart here.

Biological target: T1, Recombinant human cathepsin S (CatS) (Homo sapiens, UniProt P25774)
T1 construct: made in house
Test: Recombinant human cathepsin S (CatS) fluorogenic substrate inhibition assay
Assay type: biochemical
Description: Recombinant human cathepsin S (CatS) was expressed in the baculovirus system and purified in one step with a thiopropyl-sepharose column. […] The assay is run in 150 mM sodium acetate pH 5.0 containing 1.5 mM DTT and 150 mM NaCl. […] Measurements are taken every min for 20 min. The rate is calculated from the slope of the increase in fluorescence and the percent inhibition is calculated from this.

[1] = average of results obtained, substrate Z-Valine-Valine-Arginine-AMC 10 μM, pH 5.0, read-out: CatS IC50

T1 sequence (P25774 115-331): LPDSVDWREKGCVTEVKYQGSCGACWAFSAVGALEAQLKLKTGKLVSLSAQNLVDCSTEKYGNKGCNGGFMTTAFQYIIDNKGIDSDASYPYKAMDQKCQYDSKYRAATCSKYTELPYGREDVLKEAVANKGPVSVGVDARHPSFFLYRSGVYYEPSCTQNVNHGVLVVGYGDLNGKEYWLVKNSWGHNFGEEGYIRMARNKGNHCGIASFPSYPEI

SMILES	IC50 [1]	IC50
CN(C)C(=O)CCc1cc(-c2nn(CCCN3CCOCC3)c3c2CN(S(C)(=O)=O)CC3)ccc1Cl [Example 295, 3-{2-Chloro-5-[5-methanesulfonyl-1-(3-morpholin-4-yl-propyl)-4,5,6,7-tetrahydro-1H-pyrazolo[4,3-c]pyridin-3-yl]-phenyl}-N,N-dimethyl-propionamide]	4850 nM	
CS(=O)(=O)N1CCc2c(c(-c3ccc(C(F)(F)F)c(CNC(=O)Oc4ccccc4)c3)nn2CC(O)CN2CCC3(CCNC3=O)CC2)C1 (stereo not drawn) [Example 149, (5-{1-[2-Hydroxy-3-(1-oxo-2,8-diaza-spiro[4.5]dec-8-yl)-propyl]-5-methanesulfonyl-4,5,6,7-tetrahydro-1H-pyrazolo[4,3-c]pyridin-3-yl}-2-trifluoromethyl-benzyl)-carbamic acid phenyl ester]		220 nM
CS(=O)(=O)N1CCc2c(c(-c3ccc(Cl)c(COC(=O)c4ccccc4)c3)nn2CCCN2CCCC2)C1 [Example 70, Benzoic acid 2-chloro-5-[5-methanesulfonyl-1-(3-pyrrolidin-1-yl-propyl)-4,5,6,7-tetrahydro-1H-pyrazolo[4,3-c]pyridin-3-yl]-benzyl ester]	1850 nM	
CS(=O)(=O)N1CCc2c(c(-c3ccc(C(F)(F)F)c(CNC(=O)c4cc(Cl)cc(Cl)c4)c3)nn2CC(O)CN2CCCC2)C1 (stereo not drawn) [Example 218, 3,5-Dichloro-N-{5-[1-(2-hydroxy-3-pyrrolidin-1-yl-propyl)-5-methanesulfonyl-4,5,6,7-tetrahydro-1H-pyrazolo[4,3-c]pyridin-3-yl]-2-trifluoromethyl-benzyl}-benzamide]	610 nM	
CS(=O)(=O)N1CCc2c(c(-c3ccc(Cl)c(CNC(=O)c4ccccc4)c3)nn2CCCN2CCCC2)C1 [Example 2, N-{2-Chloro-5-[5-methanesulfonyl-1-(3-pyrrolidin-1-yl-propyl)-4,5,6,7-tetrahydro-1H-pyrazolo[4,3-c]pyridin-3-yl]-benzyl}-benzamide]		320 nM
CC(C)(C)OC(=O)NC1CCN(CC(O)Cn2nc(-c3ccc(C(F)(F)F)c(CNC(=O)c4ccc(F)cc4)c3)c3c2CCN(S(C)(=O)=O)C3)CC1 (stereo not drawn) [Example 102]	30 nM	
CC1CCCN1CC(O)Cn1nc(-c2ccc(C(F)(F)F)c(CNC(=O)c3ccc(F)cc3)c2)c2c1CCN(S(C)(=O)=O)C2 (stereo not drawn) [Example 100, 4-Fluoro-N-(5-{1-[2-hydroxy-3-(2-methyl-pyrrolidin-1-yl)-propyl]-5-methanesulfonyl-4,5,6,7-tetrahydro-1H-pyrazolo[4,3-c]pyridin-3-yl}-2-trifluoromethyl-benzyl)-benzamide]	330 nM	
CC(=O)N1CCN(CC(O)Cn2nc(-c3ccc(C(F)(F)F)c(CNC(=O)c4ccc(F)cc4)c3)c3c2CCN(S(C)(=O)=O)C3)CC1 (stereo not drawn) [Example 21, N-(5-{1-[3-(4-Acetyl-piperazin-1-yl)-2-hydroxy-propyl]-5-methanesulfonyl-4,5,6,7-tetrahydro-1H-pyrazolo[4,3-c]pyridin-3-yl}-2-trifluoromethyl-benzyl)-4-fluoro-benzamide]	300 nM	
CCOC(=O)NC1CCN(CC(O)Cn2nc(-c3ccc(C(F)(F)F)c(CNC(=O)CC(C)C)c3)c3c2CCN(S(C)(=O)=O)C3)CC1 (stereo not drawn) [Example 155, {1-[2-Hydroxy-3-(5-methanesulfonyl-3-{3-[(3-methyl-butyrylamino)-methyl]-4-trifluoromethyl-phenyl}-4,5,6,7-tetrahydro-pyrazolo[4,3-c]pyridin-1-yl)-propyl]-piperidin-4-yl}-carbamic acid ethyl ester]	50 nM	
CC(=O)NC1CCN(CC(O)Cn2nc(-c3ccc(C(F)(F)F)c(CNC(=O)c4ccc(F)cc4)c3)c3c2CCN(S(C)(=O)=O)C3)CC1 (stereo not drawn) [Example 140, N-(5-{1-[3-(4-Acetylamino-piperidin-1-yl)-2-hydroxy-propyl]-5-methanesulfonyl-4,5,6,7-tetrahydro-1H-pyrazolo[4,3-c]pyridin-3-yl}-2-trifluoromethyl-benzyl)-4-fluoro-benzamide]	50 nM	
CS(=O)(=O)N1CCc2c(c(-c3ccc(C(F)(F)F)c(CNC(=O)c4ccc(F)cc4)c3)nn2CC(O)CN2CC[C@H](CO)C2)C1 (stereo partly drawn) [Example 94, (S)-4-Fluoro-N-(5-{1-[2-hydroxy-3-(3-hydroxymethyl-pyrrolidin-1-yl)-propyl]-5-methanesulfonyl-4,5,6,7-tetrahydro-1H-pyrazolo[4,3-c]pyridin-3-yl}-2-trifluoromethyl-benzyl)-benzamide]	180 nM	
CS(=O)(=O)N1CCc2c(c(-c3ccc(C(F)(F)F)c(CNC(=O)c4ccc(F)cc4Cl)c3)nn2CC(O)CN2CCCC2)C1 (stereo not drawn) [Example 63, 2-Chloro-4-fluoro-N-{5-[1-(2-hydroxy-3-pyrrolidin-1-yl-propyl)-5-methanesulfonyl-4,5,6,7-tetrahydro-1H-pyrazolo[4,3-c]pyridin-3-yl]-2-trifluoromethyl-benzyl}-benzamide]	250 nM	
CS(=O)(=O)N1CCc2c(c(-c3ccc(C(F)(F)F)c(CNC(=O)c4ccc(F)cc4)c3)nn2CC(O)CN2CNC(=O)C2)C1 (stereo not drawn) [Example 171, 4-Fluoro-N-(5-{1-[2-hydroxy-3-(4-oxo-imidazolidin-1-yl)-propyl]-5-methanesulfonyl-4,5,6,7-tetrahydro-1H-pyrazolo[4,3-c]pyridin-3-yl}-2-trifluoromethyl-benzyl)-benzamide]	600 nM	
CS(=O)(=O)N1CCc2c(c(-c3ccc(Cl)c(CNC(=O)c4cccnc4)c3)nn2CCCN2CCCC2)C1 [Example 232, N-{2-Chloro-5-[5-methanesulfonyl-1-(3-pyrrolidin-1-yl-propyl)-4,5,6,7-tetrahydro-1H-pyrazolo[4,3-c]pyridin-3-yl]-benzyl}-nicotinamide]	820 nM	
CS(=O)(=O)N1CCc2c(c(-c3ccc(C(F)(F)F)c(CNC(=O)c4ccccc4O)c3)nn2CCCN2CCC3(CCNC3=O)CC2)C1 [Example 150, 2-Hydroxy-N-(5-{5-methanesulfonyl-1-[3-(1-oxo-2,8-diaza-spiro[4.5]dec-8-yl)-propyl]-4,5,6,7-tetrahydro-1H-pyrazolo[4,3-c]pyridin-3-yl}-2-trifluoromethyl-benzyl)-benzamide]	240 nM	
CS(=O)(=O)N1CCc2c(c(-c3ccc(C(F)(F)F)c(CNC(=O)c4ccc(C(F)(F)F)cc4)c3)nn2CC(O)CN2CCCC2)C1 (stereo not drawn) [Example 225, N-{5-[1-(2-Hydroxy-3-pyrrolidin-1-yl-propyl)-5-methanesulfonyl-4,5,6,7-tetrahydro-1H-pyrazolo[4,3-c]pyridin-3-yl]-2-trifluoromethyl-benzyl]-4-trifluoromethyl-benzamide]	750 nM	
CS(=O)(=O)N1CCc2c(c(-c3ccc(C(F)(F)F)c(CNS(=O)(=O)Cc4ccccc4)c3)nn2CCCN2CCC3(CCNC3=O)CC2)C1 [Example 67, N-(5-{5-Methanesulfonyl-1-[3-(1-oxo-2,8-diaza-spiro[4.5]dec-8-yl)-propyl]-4,5,6,7-tetrahydro-1H-pyrazolo[4,3-c]pyridin-3-yl}-2-trifluoromethyl-benzyl)-C-phenyl-methanesulfonamide]	2200 nM	
CS(=O)(=O)NCc1cc(-c2nn(CC(O)CN3CCCC3)c3c2CN(S(C)(=O)=O)CC3)ccc1C(F)(F)F (stereo not drawn) [Example 195, N-{5-[1-(2-Hydroxy-3-pyrrolidin-1-yl-propyl)-5-methanesulfonyl-4,5,6,7-tetrahydro-1H-pyrazolo[4,3-c]pyridin-3-yl]-2-trifluoromethyl-benzyl}-methanesulfonamide]	6500 nM	
CC(=O)NC1CCN(CC(O)Cn2nc(-c3ccc(C(F)(F)F)c(CNC(=O)CC(C)C)c3)c3c2CCN(S(C)(=O)=O)C3)C1 (stereo not drawn) [Example 278, N-(5-{1-[3-(3-Acetylamino-pyrrolidin-1-yl)-2-hydroxy-propyl]-5-methanesulfonyl-4,5,6,7-tetrahydro-1H-pyrazolo[4,3-c]pyridin-3-yl}-2-trifluoromethyl-benzyl)-3-methyl-butyramide]	380 nM	
Cc1ccc(C(=O)NCc2cc(-c3nn(CCCN4CCCC4)c4c3CN(S(C)(=O)=O)CC4)ccc2Cl)cc1 [Example 88, N-{2-Chloro-5-[5-methanesulfonyl-1-(3-pyrrolidin-1-yl-propyl)-4,5,6,7-tetrahydro-1H-pyrazolo[4,3-c]pyridin-3-yl]-benzyl}-4-methyl-benzamide]	740 nM	
CS(=O)(=O)N1CCc2c(c(-c3ccc(Cl)c(CNC(=O)c4ccccc4)c3)nn2CC(O)CN2CCCCCC2)C1 (stereo not drawn) [Example 170, N-{5-[1-(3-Azepan-1-yl-2-hydroxy-propyl)-5-methanesulfonyl-4,5,6,7-tetrahydro-1H-pyrazolo[4,3-c]pyridin-3-yl]-2-chloro-benzyl}-benzamide]	560 nM	
CC(C)=CC(=O)NCc1cc(-c2nn(CC(O)CN3CCC(O)CC3)c3c2CN(S(C)(=O)=O)CC3)ccc1C(F)(F)F (stereo not drawn) [Example 154, 3-Methyl-but-2-enoic acid 5-{1-[2-hydroxy-3-(4-hydroxy-piperidin-1-yl)-propyl]-5-methanesulfonyl-4,5,6,7-tetrahydro-1H-pyrazolo[4,3-c]pyridin-3-yl}-2-trifluoromethyl-benzylamide]	90 nM	
CC(C)(C)OC(=O)NC1CCN(CC(O)Cn2nc(-c3ccc(Cl)c(CNC(=O)c4ccc(F)cc4)c3)c3c2CCN(S(C)(=O)=O)C3)CC1 (stereo not drawn) [Example 78, {1-[3-(3-{4-Chloro-3-[(4-fluoro-benzoylamino)-methyl]-phenyl}-5-methanesulfonyl-4,5,6,7-tetrahydro-pyrazolo[4,3-c]pyridin-1-yl)-2-hydroxy-propyl]-piperidin-4-yl}-carbamic acid tert-butyl ester]	30 nM	
CS(=O)(=O)N1CCc2c(c(-c3ccc(C(F)(F)F)c(CNC(=O)c4ccc(F)cc4)c3)nn2CC(O)CN2CCN(CCO)CC2)C1 (stereo not drawn) [Example 98, 4-Fluoro-N-[5-(1-{2-hydroxy-3-[4-(2-hydroxy-ethyl)-piperazin-1-yl]-propyl}-5-methanesulfonyl-4,5,6,7-tetrahydro-1H-pyrazolo[4,3-c]pyridin-3-yl)-2-trifluoromethyl-benzyl]-benzamide]	280 nM	
